Laboratory results published in patent US20260345619A1 (Principia Biopharma Inc., priority 2023, published 2026).

Test: Pre-bronchodilator FEV1 and percent predicted FEV1 by spirometry, change from baseline
Format: in vivo, human
Conditions: 400 mg BID, Week 12
Method: Spirometry is a standard test to measure patients' lung function.
The primary endpoint was the proportion of patients with LOAC. The key secondary endpoint for the study was change in pre-bronchodilator FEV1 from baseline at EOT.
Reversibility is defined as an increase of the absolute FEV1 after administration of bronchodilator and is measured by spirometry as postbronchodilator increase in FEV1 in percent of the prebronchodilator FEV1. After spirometry for measuring prebronchodilator FEV1, participants were to receive 2-4 puffs of albuterol/salbutamol or levalbuterol/levosalbutamol from a primed MDI. The postbronchodilator spirometry may have been repeated several times within 30 minutes after administration of bronchodilator. Alternatively, and only if it was consistent with usual office practice (to be documented), reversibility may have been performed using inhalation of nebulized albuterol/salbutamol or levalbuterol/levosalbutamol.
Secondary endpoints included pre-bronchodilator FEV1 change from baseline at EOT, ACQ-5 score change from baseline, and AQLQ score change from baseline. Other secondary and exploratory endpoints are described in Table 2.

[1] = >2 exacerbations within 2 years

For CC(C)(C=C(C#N)C(=O)N1CCC[C@@H](n2nc(-c3ccc(Oc4ccccc4)cc3F)c3c(N)ncnc32)C1)N1CCN(C2COC2)CC1 (mixture of isomers) [rilzabrutinib, (R)-2-[3-[4-amino-3-(2-fluoro-4-phenoxy-phenyl)pyrazolo[3,4-d]pyrimidin-1-yl]piperidine-1-carbonyl]-4-methyl-4-[4-(oxetan-3-yl)piperazin-1-yl]pent-2-enenitrile], the “Pre-bronchodilator FEV1 change from baseline, LS Mean” value (1 exacerbation within 2 years) was -0.08 L, the “Pre-bronchodilator FEV1 change from baseline, LS Mean Diff vs. placebo” value (1 exacerbation within 2 years) was -0.05 L and the “Pre-bronchodilator FEV1 change from baseline, Mean” value (1 exacerbation within 2 years) was 0.05 L. The “Pre-bronchodilator FEV1 change from baseline, LS Mean” value (2 exacerbations within 2 years) was -0.01 L, the “Pre-bronchodilator FEV1 change from baseline, LS Mean Diff vs. placebo” value (2 exacerbations within 2 years) was 0.10 L and the “Pre-bronchodilator FEV1 change from baseline, Mean” value (2 exacerbations within 2 years) was -0.06 L. For the same molecule, the “Pre-bronchodilator FEV1 change from baseline, LS Mean” value [1] was -0.36 L, the “Pre-bronchodilator FEV1 change from baseline, LS Mean Diff vs. placebo” value [1] was -0.16 L and the “Pre-bronchodilator FEV1 change from baseline, Mean” value [1] was -0.15 L. The “Pre-bronchodilator FEV1 change from baseline, Mean” value (APAC) was -0.09 L, the “Pre-bronchodilator FEV1 change from baseline, Mean” value (Eastern Europe) was -0.21 L and the “Pre-bronchodilator FEV1 change from baseline, LS Mean” value (Latin America) was -0.07 L. The “Pre-bronchodilator FEV1 change from baseline, LS Mean Diff vs. placebo” value (Latin America) was -0.01 L, the “Pre-bronchodilator FEV1 change from baseline, Mean” value (Latin America) was -0.05 L and the “Pre-bronchodilator FEV1 change from baseline, Mean” value (Western Countries) was 0.24 L. For the same molecule, the “Pre-bronchodilator FEV1 change from baseline, LS Mean” value (age <45 years) was -0.13 L, the “Pre-bronchodilator FEV1 change from baseline, LS Mean Diff vs. placebo” value (age <45 years) was -0.13 L and the “Pre-bronchodilator FEV1 change from baseline, Mean” value (age <45 years) was -0.05 L. The “Pre-bronchodilator FEV1 change from baseline, LS Mean” value (age ≥45 years) was -0.14 L, the “Pre-bronchodilator FEV1 change from baseline, LS Mean Diff vs. placebo” value (age ≥45 years) was 0.02 L and the “Pre-bronchodilator FEV1 change from baseline, Mean” value (age ≥45 years) was -0.03 L. For the same molecule, the “Pre-bronchodilator FEV1 change from baseline, LS Mean” value (asthma onset age <12 years) was 0.12 L, the “Pre-bronchodilator FEV1 change from baseline, LS Mean Diff vs. placebo” value (asthma onset age <12 years) was 0.18 L and the “Pre-bronchodilator FEV1 change from baseline, Mean” value (asthma onset age <12 years) was 0.00 L. The “Pre-bronchodilator FEV1 change from baseline, LS Mean” value (asthma onset age <18 years) was -0.00 L, the “Pre-bronchodilator FEV1 change from baseline, LS Mean Diff vs. placebo” value (asthma onset age <18 years) was 0.08 L and the “Pre-bronchodilator FEV1 change from baseline, Mean” value (asthma onset age <18 years) was 0.04 L. The “Pre-bronchodilator FEV1 change from baseline, Mean” value (asthma onset age ≥12-<18 years) was 0.12 L, the “Pre-bronchodilator FEV1 change from baseline, LS Mean” value (asthma onset age ≥18-<40 years) was -0.14 L and the “Pre-bronchodilator FEV1 change from baseline, LS Mean Diff vs. placebo” value (asthma onset age ≥18-<40 years) was 0.00 L. For the same molecule, the “Pre-bronchodilator FEV1 change from baseline, Mean” value (asthma onset age ≥18-<40 years) was -0.08 L, the “Pre-bronchodilator FEV1 change from baseline, LS Mean” value (asthma onset age ≥18 years) was -0.17 L and the “Pre-bronchodilator FEV1 change from baseline, LS Mean Diff vs. placebo” value (asthma onset age ≥18 years) was -0.03 L. For the same molecule, the “Pre-bronchodilator FEV1 change from baseline, Mean” value (asthma onset age ≥18 years) was -0.11 L, the “Pre-bronchodilator FEV1 change from baseline, LS Mean” value (asthma onset age ≥40 years) was 0.00 L and the “Pre-bronchodilator FEV1 change from baseline, LS Mean Diff vs. placebo” value (asthma onset age ≥40 years) was 0.07 L. The “Pre-bronchodilator FEV1 change from baseline, Mean” value (asthma onset age ≥40 years) was -0.31 L, the “Pre-bronchodilator FEV1 change from baseline, LS Mean” value (atopic medical conditions: No) was -0.15 L and the “Pre-bronchodilator FEV1 change from baseline, LS Mean Diff vs. placebo” value (atopic medical conditions: No) was 0.10 L. The “Pre-bronchodilator FEV1 change from baseline, Mean” value (atopic medical conditions: No) was -0.16 L, the “Pre-bronchodilator FEV1 change from baseline, LS Mean” value (atopic medical conditions: Yes) was 0.02 L and the “Pre-bronchodilator FEV1 change from baseline, LS Mean Diff vs. placebo” value (atopic medical conditions: Yes) was -0.03 L. The “Pre-bronchodilator FEV1 change from baseline, Mean” value (atopic medical conditions: Yes) was 0.03 L, the “Pre-bronchodilator FEV1 change from baseline, LS Mean” value (background ICS/LABA dose High) was -0.11 L and the “Pre-bronchodilator FEV1 change from baseline, LS Mean Diff vs. placebo” value (background ICS/LABA dose High) was 0.02 L. For the same molecule, the “Pre-bronchodilator FEV1 change from baseline, Mean” value (background ICS/LABA dose High) was -0.05 L, the “Pre-bronchodilator FEV1 change from baseline, Mean” value (background ICS/LABA dose Medium) was 0.04 L and the “Pre-bronchodilator FEV1 change from baseline, LS Mean” value (baseline ACQ-5 >2) was -0.12 L. The “Pre-bronchodilator FEV1 change from baseline, LS Mean Diff vs. placebo” value (baseline ACQ-5 >2) was -0.04 L, the “Pre-bronchodilator FEV1 change from baseline, Mean” value (baseline ACQ-5 >2) was -0.09 L and the “Pre-bronchodilator FEV1 change from baseline, LS Mean” value (baseline ACQ-5 ≤2) was -0.12 L. The “Pre-bronchodilator FEV1 change from baseline, LS Mean Diff vs. placebo” value (baseline ACQ-5 ≤2) was 0.04 L, the “Pre-bronchodilator FEV1 change from baseline, Mean” value (baseline ACQ-5 ≤2) was 0.00 L and the “Pre-bronchodilator FEV1 change from baseline, LS Mean” value (baseline BMI <25 kg/m^2) was -0.09 L. For the same molecule, the “Pre-bronchodilator FEV1 change from baseline, LS Mean Diff vs. placebo” value (baseline BMI <25 kg/m^2) was 0.15 L, the “Pre-bronchodilator FEV1 change from baseline, Mean” value (baseline BMI <25 kg/m^2) was 0.02 L and the “Pre-bronchodilator FEV1 change from baseline, LS Mean” value (baseline BMI ≥25-<30 kg/m^2) was -0.06 L. For the same molecule, the “Pre-bronchodilator FEV1 change from baseline, LS Mean Diff vs. placebo” value (baseline BMI ≥25-<30 kg/m^2) was 0.06 L and the “Pre-bronchodilator FEV1 change from baseline, Mean” value (baseline BMI ≥25-<30 kg/m^2) was -0.00 L.
